Reference: patent US12582657B2, “Combination therapy including a KRAS G12C inhibitor and one or more additional pharmaceutically active agents for the treatment of cancers” (Amgen Inc., priority 2018, dated 2026)
Where two headings read alike, the source gives them in different places.

Assays:
COLO-205 cells = experiment: Cell viability assay (CellTiter-Glo, adherent); type: cell-based; settings: Homo sapiens, COLO-205, colon, KRAS WT BRAF p.V600E, 72-hour treatment
Description: For adherent viability assays, 0.5-1.0E+03 cells were seeded per well in 384-well plates (or 2.5-4.0E+04 cells per well in 96-well plates) and incubated at 37° C., 5% CO2, o/n. The following day, serially-diluted compound or DMSO was added to the cells, and the plates were incubated at 37° C., 5% CO2 for 72 hours. Cell viability was measured using a CellTiter-Glo® Luminescent Cell Viability Assay kit (Promega) according to the manufacturer's protocol. The luminescence signal of treated samples was normalized to DMSO control.

[1] = test system: ERK1/2 phosphorylation in NCI-H23 cells; experiment: Basal ERK1/2 phosphorylation assay (MSD); type: cell-based; settings: Homo sapiens; NCI-H23, lung, KRAS p.G12C heterozygous; 2-hour treatment
Description: (§1) For cellular assays, 2.5E+04 cells were seeded per well in 96-well plates and incubated at 37° C., 5% CO2, o/n. The following day, 3-fold serially-diluted compound or DMSO was added to the cells, and the plates were incubated at 37° C., 5% CO2 for 2 hours. […] Signal intensity corresponded with phospho-ERK1/2 levels and was normalized DMSO control.

[2] = test system: ERK1/2 phosphorylation in KM12 cells; experiment: Basal ERK1/2 phosphorylation assay (MSD); type: cell-based; settings: Homo sapiens; KM12, colon, KRAS WT TPM3-NTRK fusion; 2-hour treatment; read-out: Basal p-ERK1/2 IC50
Description: as §1

[3] = test system: ERK1/2 phosphorylation in SW837 cells; experiment: Basal ERK1/2 phosphorylation assay (MSD); type: cell-based; settings: Homo sapiens; SW837, colon, KRAS p.G12C heterozygous; 2-hour treatment
Description: as §1

[4] = test system: ERK1/2 phosphorylation in SW1463 cells; experiment: Basal ERK1/2 phosphorylation assay (MSD); type: cell-based; settings: Homo sapiens; SW1463, colon, KRAS p.G12C homozygous; 2-hour treatment
Description: as §1

[5] = test system: ERK1/2 phosphorylation in NCI-H358 cells; experiment: Basal ERK1/2 phosphorylation assay (MSD); type: cell-based; settings: Homo sapiens
Description: as §1

[6] = test system: ERK1/2 phosphorylation in NCI-H1792 cells; experiment: Basal ERK1/2 phosphorylation assay (MSD); type: cell-based; settings: Homo sapiens; NCI-H1792, lung, KRAS p.G12C heterozygous; 2-hour treatment
Description: as §1

[7] = test system: ERK1/2 phosphorylation in COLO-205 cells; experiment: Basal ERK1/2 phosphorylation assay (MSD); type: cell-based; settings: Homo sapiens; COLO-205, colon, KRAS WT BRAF p.V600E; 2-hour treatment
Description: as §1

[8] = test system: ERK1/2 phosphorylation in HCC-827 cells; experiment: Basal ERK1/2 phosphorylation assay (MSD); type: cell-based; settings: Homo sapiens, HCC827; HCC-827, lung, KRAS WT EGFR p.E746_A750del; 2-hour treatment
Description: as §1

[9] = test system: ERK1/2 phosphorylation in AsPC-1 cells; experiment: Basal ERK1/2 phosphorylation assay (MSD); type: cell-based; settings: Homo sapiens, ASPC1; AsPC-1, pancreas, KRAS p.G12D homozygous; 2-hour treatment
Description: as §1

[10] = test system: ERK1/2 phosphorylation in Calu-1 cells; experiment: Basal ERK1/2 phosphorylation assay (MSD); type: cell-based; settings: Homo sapiens; Calu-1, lung, KRAS p.G12C heterozygous; 2-hour treatment
Description: as §1

[11] = test system: ERK1/2 phosphorylation in NCI-H1355 cells; experiment: Basal ERK1/2 phosphorylation assay (MSD); type: cell-based; settings: Homo sapiens; NCI-H1355, lung, KRAS p.G13C heterozygous; 2-hour treatment
Description: as §1

[12] = test system: ERK1/2 phosphorylation in A549 cells; experiment: Basal ERK1/2 phosphorylation assay (MSD); type: cell-based; settings: Homo sapiens; A549, lung, KRAS p.G12S homozygous; 2-hour treatment
Description: as §1

[13] = test system: ERK1/2 phosphorylation in NCI-H1373 cells; experiment: Basal ERK1/2 phosphorylation assay (MSD); type: cell-based; settings: Homo sapiens; NCI-H1373, lung, KRAS p.G12C homozygous; 2-hour treatment
Description: as §1

[14] = test system: ERK1/2 phosphorylation in MIA PaCa-2 cells; experiment: Basal ERK1/2 phosphorylation assay (MSD); type: cell-based; settings: Homo sapiens, 2-hour treatment
Description: as §1

[15] = test system: ERK1/2 phosphorylation in SW480 cells; experiment: Basal ERK1/2 phosphorylation assay (MSD); type: cell-based; settings: Homo sapiens; SW480, colon, KRAS p.G12V homozygous; 2-hour treatment
Description: as §1

[16] = test system: ERK1/2 phosphorylation in SW1573 cells; experiment: Basal ERK1/2 phosphorylation assay (MSD); type: cell-based; settings: Homo sapiens; SW1573, lung, KRAS p.G12C homozygous; 2-hour treatment
Description: as §1

[17] = test system: ERK1/2 phosphorylation in A-427 cells; experiment: Basal ERK1/2 phosphorylation assay (MSD); type: cell-based; settings: Homo sapiens; A-427, lung, KRAS p.G12D heterozygous; 2-hour treatment
Description: as §1

[18] = test system: ERK1/2 phosphorylation in NCI-H2122 cells; experiment: Basal ERK1/2 phosphorylation assay (MSD); type: cell-based; settings: Homo sapiens; NCI-H2122, lung, KRAS p.G12C homozygous; 2-hour treatment
Description: as §1

[19] = test system: ERK1/2 phosphorylation in LS 174T cells; experiment: Basal ERK1/2 phosphorylation assay (MSD); type: cell-based; settings: Homo sapiens, LS174T, colon, KRAS p.G12D heterozygous, 2-hour treatment
Description: as §1

[20] = test system: ERK1/2 phosphorylation in NCI-H2030 cells; experiment: Basal ERK1/2 phosphorylation assay (MSD); type: cell-based; settings: Homo sapiens; NCI-H2030, lung, KRAS p.G12C homozygous; 2-hour treatment
Description: as §1

[21] = test system: ERK1/2 phosphorylation in NCI-H1322 cells; experiment: Basal ERK1/2 phosphorylation assay (MSD); type: cell-based; settings: Homo sapiens, 2 h, read-out: Basal p-ERK1/2 IC50
Description: as §1

[22] = test system: MAPK, EGFR, AKT, S6, caspase-3 signaling in NCI-H358 and MIA PaCa-2; experiment: Western blots of cellular signaling nodes; type: cell-based, human; settings: 0.1 μM; both lines
From the text: This shifted species accumulated with increasing time and dose and was consistent with downstream inhibition of the MAPK pathway (i.e. p-MEK1/2 and p-ERK1/2) in both cell lines (FIGS. 41A and 41B).

C=CC(=O)N1CCN(c2nc(=O)n(-c3c(C)ccnc3C(C)C)c3nc(-c4c(O)cccc4F)c(F)cc23)[C@@H](C)C1 (atropisomer, axis not shown) [AMG 510, 6-fluoro-7-(2-fluoro-6-hydroxyphenyl)-1-(4-methyl-2-(2-propanyl)-3-pyridinyl)-4-((2S)-2-methyl-4-(2-propenoyl)-1-piperazinyl)pyrido[2,3-d]pyrimidin-2(1H)-one] showed an IC50 (COLO-205 cells) greater than 7.5 µM, an IC50 [1] of 0.09 ± 0.017 µM and an IC50 [2] greater than 10 µM. For the same molecule, the IC50 [3] was 0.018 ± 0.002 µM, the IC50 [4] was 0.033 ± 0.004 µM and the IC50 ([5]; NCI-H358, 2 h, read-out: p-ERK IC50) was roughly 0.02 µM. The IC50 ([5]; NCI-H358, lung, KRAS p.G12C heterozygous, 2-hour treatment, read-out: Basal p-ERK1/2 IC50) was 0.035 ± 0.003 µM, the IC50 [6] was 0.045 ± 0.023 µM and the IC50 [7] was greater than 10 µM. For the same molecule, the IC50 [8] was greater than 10 µM, the IC50 [9] was greater than 10 µM and the IC50 [10] was 0.013 ± 0.004 µM. It also gave an IC50 [11] greater than 10 µM, an IC50 [12] greater than 10 µM and an IC50 [13] of 0.01 ± 0.0001 µM. It also gave an IC50 ([14]; second of two KRASp.G12C cell lines (FIG. 40E: MIA PaCa-2), read-out: p-ERK IC50) of roughly 0.03 µM, an IC50 ([14]; MIA PaCa-2, pancreas, KRAS p.G12C homozygous, read-out: Basal p-ERK1/2 IC50) of 0.036 ± 0.002 µM and an IC50 [15] greater than 10 µM. The IC50 [16] was 0.027 ± 0.001 µM, the IC50 [17] was greater than 10 µM and the IC50 [18] was 0.123 ± 0.006 µM. For the same molecule, the IC50 [19] was greater than 10 µM, the IC50 [20] was 0.04 ± 0.02 µM and the IC50 [21] was greater than 10 µM. For the same molecule, the “duration of effects on MAPK and EGFR” value [22] was greater than 24 h, the “onset of effects on MAPK and EGFR” value [22] was less than 2 h and the “time at which p-S6 and caspase-cleavage effects emerged” value [22] was 8 to 16 h.
